Assay results from patent publication EP1580187A1, “Apoptogenic and antiproliferative analogs of ceramide” (Deigner, Hans-Peter, priority 2004, dated 2005).
Like-named read-outs stand apart in the source and are kept apart here.

Assays:
Type in all cases: cell-based
[1] = tested on: human adenocarcinoma cell line HT 29; experiment: Induction of apoptosis (YOPRO-1 / Hoechst 33342 staining, count of apoptotic cells); conditions: HT 29 cells, mean (MW), spontaneous apoptosis rate 2.48 % ± 0.58, unit only printed
Procedure: (§1) Human colon carcinoma cells HT-29 were purchased from ATCC and cultivated under standard conditions (37°C, 5% CO2, McCoy 5A medium, 10% fetal calf serum, penicillin, streptomycin). For experimentation, cells were seeded in cell culture dishes at appropriate density, stimulated and analysed as described in the following section.
Apoptotic macrophages and colon carcinoma cells were identified by microscopic observation of typical morphological changes (blebbing, generation of apoptotic bodies) and quantitated by YOPRO-1 staining and Hoechst 33342 dye. The percentage of apoptotic cells was counted using a microscope fitted with mercury light source and fluorescence assembly in combination with a computer-assisted morphometry system. Apoptosis was confirmed by PARP cleavage detected by Western Blotting and single cell electrophoresis (COMET-assay).
(§2) Induction of apoptosis was determined in the human adenocarcinoma cell line HT 29 as described in Example 1; spontaneous apoptosis rate was 2.48 % ± 0.58. The activation of acidic sphingomyelinase (aSMase) was analyzed in the same cell line as described in Example 1, basal activity amounts to 278,4 pmolµg^-1min^-1 ± 41,3.

[2] = target: T1, acidic sphingomyelinase (aSMase) (Homo sapiens, UniProt P17405); experiment: SMase activity determination (activation of aSMase in cells, NBD-sphingomyelin hydrolysis); conditions: HT 29 cells, mean (MW), basal activity 278,4 ± 41,3, unit only printed
T1 construct: endogenous in cells; host or cells: HT 29 (human adenocarcinoma cell line)
T1 sequence (P17405 47-631): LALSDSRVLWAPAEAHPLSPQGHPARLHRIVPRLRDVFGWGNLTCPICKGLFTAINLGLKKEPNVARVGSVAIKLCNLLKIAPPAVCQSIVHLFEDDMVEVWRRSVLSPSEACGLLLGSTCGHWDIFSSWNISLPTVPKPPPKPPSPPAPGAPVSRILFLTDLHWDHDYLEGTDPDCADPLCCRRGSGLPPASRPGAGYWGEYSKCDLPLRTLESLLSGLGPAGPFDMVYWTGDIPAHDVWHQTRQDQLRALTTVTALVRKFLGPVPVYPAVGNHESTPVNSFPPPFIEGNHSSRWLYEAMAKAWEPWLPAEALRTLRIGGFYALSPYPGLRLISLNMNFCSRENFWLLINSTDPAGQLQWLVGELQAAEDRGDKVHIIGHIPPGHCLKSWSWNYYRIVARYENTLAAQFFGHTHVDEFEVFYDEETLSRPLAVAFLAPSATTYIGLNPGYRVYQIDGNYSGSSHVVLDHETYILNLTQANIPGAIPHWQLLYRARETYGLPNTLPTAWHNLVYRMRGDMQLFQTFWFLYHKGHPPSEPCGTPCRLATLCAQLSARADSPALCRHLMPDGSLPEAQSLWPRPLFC
Procedure: Activities of aSMase and nSMase were determined by hydrolysis of a fluorogenic C12-analogue substrate [(7-Nitro-2-1,3-benzoxadiazol-4-yl)amino-dodecyl-D-erythro-sphingosine, NBD-sphingomyelin, Molecular Probes, subsequent separation of the labelled NBD ceramide analog by thin layer chromatography and data analysis at conditions as described in detail previously.
as §2

[3] = tested on: HT-29 colon carcinoma cells; experiment: Proliferation (DNA synthesis, colorimetric BrdU-ELISA); conditions: Homo sapiens
Procedure: as §1
Quantitative determination of DNA synthesis in replicating cells was analyzed using commercial available test kits (colorimetric BrdU-ELISA, Roche-Diagnostics) according to the manufacturer's instructions. For these experiments, HT-29 colon carcinoma cells were seeded in 96-well plates at 40% confluence, cultivated overnight (1% FCS), incubated for 16 h with the test compounds (concentration range: three orders of magnitude), pulsed labelled with BrdU and fixed. The amount of incorporated BrdU was analysed using specific antibodies (Roche Diagnostics, Mannheim, Germany) and subsequent colorimetric reaction. The rate of DNA-synthesis in untreated control cells with standard medium was determined and compared with that in a medium contained the test compounds.
Semiconfluent HT-29 cells were incubated with compound 4 at concentration as indicated over night and DNA synthesis was analyzed on the basis of BrdU-incorporation and subsequent immunological quantification. Compound 4 inhibited cellular proliferative activity with an apparent IC50 of among 6,7 µM. […] Due to previous calculation using dependent variables over several orders of magnitudes, no standard deviation is given in Table 1 presenting the averaged half maximal concentrations for inhibition of proliferative activity.

[4] = HT-29 cells, BrdU incorporation, averaged half maximal concentrations, no standard deviation, read-out: Anti-Prolif. IC50
[5] = semiconfluent HT-29 cells, incubation over night, BrdU-incorporation, read-out: apparent IC50 / half maximal antiproliferative activity

Row | aSMase-activity 5 μM MW [2] | aSMase-activity 20 μM MW [2] | IC50 [3, 4] | IC50 [3, 5] | SMILES | Induction of apoptosis 5 μM MW [1] | Induction of apoptosis 10 μM MW [1] | Induction of apoptosis 30 μM MW [1]
1 | 347,0 pmolµg^-1min^-1 | 1185,4 pmolµg^-1min^-1 | 4.6 µM |  | CCCCCC(=O)N[C@@H](CO)[C@H](O)C1=CCCC1 [Compound 2, Hexanoic acid ((1S,2R)-2-cyclopent-1-enyl-2-hydroxy-1-hydroxymethyl-ethyl)-amide] | 15,7% | 4,9% | 5,9%
2 | 403,8 pmolµg^-1min^-1 | 1108,4 pmolµg^-1min^-1 | 3.1 µM |  | CCCCCC(=O)N[C@@H](CO)[C@H](O)/C1=C/CCCCCC1 [Compound 3, Hexanoic acid [(1S,2R)-2-((E)-cyclooct-1-enyl)-2-hydroxy-1-hydroxymethyl-ethyl]-amide] | 2,9% | 7,4% | 5,7%
3 | 574,2 pmolµg^-1min^-1 | 812,7 pmolµg^-1min^-1 | 6.7 µM | ~6.7 µM | CC(C)(C)OC(=O)N1[C@H]([C@H](O)C2=CCCC2)COC1(C)C [Compound 4, (S)-4-((R)-Cyclopent-1-enyl-hydroxy-methyl)-2,2-dimethyloxazolidine-3-carboxylic acid tert-butyl ester] | 3,95% | 8,5% | 10,2%
4 | 541,3 pmolµg^-1min^-1 | 631,0 pmolµg^-1min^-1 | 2.4 µM |  | CCCCCC(=O)N[C@@H](CO)[C@@H](O)c1ccc([N+](=O)[O-])cc1 [Compound 1, Hexanoic acid [(1S,2S)-2-hydroxy-1-hydroxymethyl-2-(4-nitrophenyl)-ethyl]-amide] | 1,3% | 8,4% | 8,9%
5 | 447,3 pmolµg^-1min^-1 | 967,3 pmolµg^-1min^-1 | 3.2 µM |  | CC(C)(C)OC(=O)N1[C@H]([C@H](O)/C2=C/CCCCCC2)COC1(C)C [Compound 5, (S)-4-[(R)-((E)-Cyclooct-1-enyl)-hydroxy-methyl]-2,2-dimethyloxazolidine-3-carboxylic acid tert-butyl ester] | 6,4% | 7,7% | 9,2%
6 | 427,3 pmolµg^-1min^-1 | 743,4 pmolµg^-1min^-1 | 4 µM | ~4 µM | CCCCCCCCCCCCC/C=C/[C@@H](O)[C@H](CO)NC(=O)CCCCC [Ceramide C6, reference compound] | 2,6% | 6,4% | 12,4%
